For ten compounds, GI50 and TGI results are on record in PubChem BioAssay (NCI).

Values joined by “and” are separate entries in the source; they are usually repeats but may differ in a detail not shown here. Identical values can stand only once.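 The compound was tested at five concentrations on cells cultured in 96-well plates, with a 48-hour exposure period. GI50: concentration for 50% inhibition of growth. The concentration for full growth arrest is given as TGI.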

Test systems include COLO 205 colon; HCC-2998 colon; HL-60(TB) leukemia; HOP-62 NSCLC; IGROV1 ovarian; M14 melanoma; SK-OV-3 ovarian; SN12C renal; U251 CNS; UACC-62 melanoma.
Holding throughout (assay): NCI-60 cell line screen, 48 h

Consider `O=[N+]([O-])c1ccc2c(N3CCC(CCCC4CCN(c5ncnc6cc([N+](=O)[O-])ccc56)CC4)CC3)ncnc2c1`, for which the GI50 is 11.5 µM in the assay on COLO 205 colon; over 87.1 µM in the assay on HCC-2998 colon; 17.8 µM in the assay with HL-60(TB) leukemia; over 32.2 µM in the assay with HOP-62 NSCLC; over 62.8 µM in the assay on IGROV1 ovarian; over 49 µM in the assay on M14 melanoma. Further, the GI50 is over 46.3 µM in the assay with SK-OV-3 ovarian, over 55.9 µM in the assay on SN12C renal, over 42.2 µM in the assay with U251 CNS and over 33.4 µM in the assay with UACC-62 melanoma. Besides, the TGI in the assay on COLO 205 colon, in the assay on HCC-2998 colon, in the assay with HL-60(TB) leukemia, with HOP-62 NSCLC, in the assay with IGROV1 ovarian and in the assay on M14 melanoma was over 100 µM in each case. Besides, the TGI with SK-OV-3 ovarian is over 100 µM; with SN12C renal, over 100 µM; in the assay with U251 CNS it was over 100 µM; in the assay with UACC-62 melanoma, over 56.9 µM.
Take `CN1CCN(c2ccc3nc(-c4c(N)c5c(F)cccc5[nH]c4=O)[nH]c3c2)CC1`: the GI50 with COLO 205 colon was 0.965 µM and 0.496 µM and 2.26 µM; in the assay with HCC-2998 colon it was 1.33 µM and 0.867 µM and 1.36 µM; in the assay on HL-60(TB) leukemia it was 0.86 µM and 0.314 µM and 1.2 µM; in the assay on HOP-62 NSCLC it was 1.08 µM and 0.829 µM and 1.58 µM; in the assay on IGROV1 ovarian it was 0.325 µM and 0.272 µM and 0.302 µM; with M14 melanoma, 0.41 µM and 0.34 µM and 0.445 µM. Further, the GI50 was 0.379 µM and 0.487 µM and 0.515 µM with SK-OV-3 ovarian; 0.413 µM and 0.393 µM and 0.62 µM in the assay with SN12C renal; 1.02 µM and 0.652 µM and 0.78 µM in the assay on U251 CNS; 1.19 µM and 1.28 µM and 2.13 µM with UACC-62 melanoma. Moreover, the TGI is 2.31 µM and > 2.04 µM and 17.2 µM in the assay with COLO 205 colon; 5.24 µM and > 4.09 µM and 6.58 µM in the assay with HCC-2998 colon; 2.8 µM and 2.36 µM and 3.12 µM in the assay with HL-60(TB) leukemia; 2.7 µM and > 3.73 µM and 8.18 µM in the assay with HOP-62 NSCLC; 4.94 µM and > 3.98 µM and 11.8 µM in the assay on IGROV1 ovarian; 1.71 µM and 1.54 µM and 1.93 µM with M14 melanoma. Further, the TGI with SN12C renal was 5.3 µM and > 5.12 µM and 5.82 µM; in the assay on U251 CNS it was 2.45 µM and > 3.32 µM and 3.49 µM; in the assay on UACC-62 melanoma it was 6.05 µM and > 2.9 µM and 10 µM.
`CN(C)CCNC(=O)Cn1cc([N+](=O)[O-])c(=O)c2ccccc21`: the TGI with COLO 205 colon, in the assay with HCC-2998 colon, in the assay on HL-60(TB) leukemia, in the assay with HOP-62 NSCLC, in the assay on IGROV1 ovarian and in the assay on M14 melanoma was over 100 µM each time. Moreover, the TGI in the assay with SK-OV-3 ovarian, with SN12C renal, with U251 CNS and in the assay on UACC-62 melanoma was over 100 µM each time.
Turning to `c1ccc(-c2cc(C3CO3)c3ccccc3n2)cc1` (centres undefined), the TGI worked out at 37.4 µM with COLO 205 colon; 35.2 µM with HCC-2998 colon; 63.7 µM in the assay on HL-60(TB) leukemia; 67.5 µM in the assay with HOP-62 NSCLC; 36.6 µM with IGROV1 ovarian; 34.2 µM in the assay on M14 melanoma. The TGI with SK-OV-3 ovarian is over 100 µM; in the assay with SN12C renal it was 31.3 µM; with U251 CNS it was 30 µM; in the assay with UACC-62 melanoma, 33.7 µM.
As for `Cc1c(C(=O)C/C(=N/NC(=O)C[n+]2ccccc2)C(=O)Nc2ccccc2)[n+](=O)c2ccccc2n1O`, the TGI with COLO 205 colon, in the assay on HCC-2998 colon, with HL-60(TB) leukemia, in the assay with HOP-62 NSCLC, in the assay with IGROV1 ovarian and in the assay on M14 melanoma was over 100 µM throughout. In addition, the TGI in the assay with SK-OV-3 ovarian, in the assay with SN12C renal, in the assay on U251 CNS and with UACC-62 melanoma was over 100 µM each time.
For `CC(=O)OCC(=O)O[C@@H]1C[C@]2(C(C)C)O[C@@]1(C)[C@@H]1CC[C@@H](C)[C@H]1[C@@H]2OC(=O)/C=C/c1ccccc1`, the GI50 was 24.2 µM in the assay on COLO 205 colon; 20 µM in the assay with HCC-2998 colon; 15 µM in the assay with HL-60(TB) leukemia; 17.3 µM with HOP-62 NSCLC; 42.5 µM with IGROV1 ovarian; 26.3 µM with M14 melanoma. Also, the GI50 in the assay with SK-OV-3 ovarian was 24.5 µM; with SN12C renal it was 1.88 µM; with U251 CNS it was 16.7 µM; in the assay on UACC-62 melanoma, 14.1 µM. The TGI was 84.6 µM with COLO 205 colon; 75.3 µM with HCC-2998 colon; 62 µM in the assay with HL-60(TB) leukemia; 45.2 µM in the assay with HOP-62 NSCLC; over 100 µM with IGROV1 ovarian; over 100 µM with M14 melanoma. In addition, the TGI in the assay with SK-OV-3 ovarian is over 97.2 µM; with SN12C renal, 24.3 µM; in the assay with U251 CNS, 50.3 µM; in the assay on UACC-62 melanoma, 38.3 µM.
On to `O=c1cccccc1NCCCCCCNc1cccccc1=O`, for which the TGI in the assay on COLO 205 colon, with HCC-2998 colon, with HL-60(TB) leukemia, with HOP-62 NSCLC, in the assay on IGROV1 ovarian and in the assay with M14 melanoma was over 100 µM in each case. For the same compound, the TGI with SK-OV-3 ovarian, in the assay on SN12C renal, with U251 CNS and in the assay on UACC-62 melanoma was over 100 µM throughout.
For the compound `CC(=O)O[C@]1(C)OC(=O)[C@@H](C)N1[N+](=O)[O-]`, the TGI with COLO 205 colon, with HCC-2998 colon, with HL-60(TB) leukemia, in the assay on HOP-62 NSCLC, with IGROV1 ovarian and in the assay on M14 melanoma was over 100 µM in each case. The TGI with SK-OV-3 ovarian, with SN12C renal, in the assay with U251 CNS and in the assay on UACC-62 melanoma was over 100 µM throughout.
`CC(C)(C)c1[nH]cnc1/C=c1\[nH]c(=O)/c(=C/c2ccccc2)[nH]c1=O`: the GI50 in the assay on COLO 205 colon is 0.013 µM; in the assay on HCC-2998 colon, 0.0307 µM; with HL-60(TB) leukemia, under 0.01 µM; in the assay on HOP-62 NSCLC, under 0.01 µM; in the assay with IGROV1 ovarian it was 0.0134 µM; in the assay with M14 melanoma, under 0.01 µM. The GI50 in the assay with SK-OV-3 ovarian was under 0.01 µM; in the assay with SN12C renal, under 0.0144 µM; in the assay on U251 CNS it was under 0.01 µM; with UACC-62 melanoma, under 0.01 µM. Also, the TGI with COLO 205 colon is 0.101 µM; in the assay on HCC-2998 colon it was 33.1 µM; in the assay on HL-60(TB) leukemia it was 11.1 µM; with HOP-62 NSCLC, 25.8 µM; in the assay on IGROV1 ovarian, 24.2 µM; in the assay on M14 melanoma, 17.1 µM. The TGI in the assay with SK-OV-3 ovarian was 60.9 µM; in the assay with SN12C renal, 69.6 µM; with U251 CNS it was 43.9 µM; in the assay with UACC-62 melanoma, 21.2 µM.
In the case of `C=CC(C)(O)/C=C/C=C(\C)C(CC1OC1(C)C)OC(=O)/C(C)=C\C` (centres undefined), the TGI with COLO 205 colon, in the assay with HCC-2998 colon, in the assay on HL-60(TB) leukemia, in the assay with HOP-62 NSCLC, with IGROV1 ovarian and in the assay with M14 melanoma was over 100 µM each time. The TGI in the assay with SK-OV-3 ovarian, in the assay on SN12C renal, in the assay with U251 CNS and in the assay on UACC-62 melanoma was over 100 µM each time.
